The source of these data is US9550792B2, “Polycyclic substituted pyrazole kinase activity inhibitors and use thereof” (priority 2013, dated 2017).

Common to all, as to format: biochemical
Test [1] deals with FGFR1 (Homo sapiens, UniProt P11362). The test is described as follows: Kinase IC50, 33P labeled isotope method. The settings on record: 20 μM ATP; read-out: IC50* FGFR1.
Test [2] concerns the target JNK1 (Homo sapiens, UniProt P45983). The experiment in a line: Kinase IC50, 33P labeled isotope method. The settings on record: 20 μM ATP; read-out: IC50* JNK1.
Test [3] has as its target CDK2/Cyclin A1 (Homo sapiens, UniProt P24941). The experiment in a line: Kinase IC50, 33P labeled isotope method. The settings on record: 20 μM ATP; read-out: IC50* CDK2/Cyclin A1.
Test [4] concerns the target T1, Aurora A (Homo sapiens, UniProt O14965).
T1 construct: purchased
T1 sequence (O14965 1-403): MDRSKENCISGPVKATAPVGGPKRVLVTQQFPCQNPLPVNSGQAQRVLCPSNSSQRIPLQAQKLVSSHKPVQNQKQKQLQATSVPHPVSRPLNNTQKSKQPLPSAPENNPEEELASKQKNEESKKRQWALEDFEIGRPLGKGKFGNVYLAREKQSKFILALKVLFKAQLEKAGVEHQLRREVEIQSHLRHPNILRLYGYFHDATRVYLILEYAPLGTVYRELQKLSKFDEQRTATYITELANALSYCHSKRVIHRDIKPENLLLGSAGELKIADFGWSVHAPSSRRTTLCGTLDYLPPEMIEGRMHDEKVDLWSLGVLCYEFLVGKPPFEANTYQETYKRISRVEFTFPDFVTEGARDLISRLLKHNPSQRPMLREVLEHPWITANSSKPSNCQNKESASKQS
The experiment in a line: Inhibitory activity to Aurora A (FRET). The settings on record: read-out: Aurora A inhibition % (1 × 10^−6 mol/L). The method, boiled down: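 FRET kinase assay of Aurora A with peptide substrate in HEPES pH 7.5, BRIJ-35, MgCl2, EDTA; 1 h reaction, then 1 h development before stop. Ex 400 nm, emission 445 nm (coumarin) and 520 nm (fluorescein); 0% and 100% phosphorylation controls set inhibition scale.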

Test [5] addresses T2, ERK7/MAPK15 (Homo sapiens, UniProt Q8TD08).
T2 sequence (Q8TD08 13-304 limits assumed): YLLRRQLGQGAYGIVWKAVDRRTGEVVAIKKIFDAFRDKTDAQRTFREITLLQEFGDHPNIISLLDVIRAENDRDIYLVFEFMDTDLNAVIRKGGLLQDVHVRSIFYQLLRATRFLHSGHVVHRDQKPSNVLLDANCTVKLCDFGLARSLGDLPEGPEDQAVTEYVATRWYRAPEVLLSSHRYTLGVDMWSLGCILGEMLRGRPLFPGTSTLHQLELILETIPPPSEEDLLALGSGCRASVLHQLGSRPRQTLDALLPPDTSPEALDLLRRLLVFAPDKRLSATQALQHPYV
The experiment in a line: Kinase IC50, 33P labeled isotope method. The settings on record: 20 μM ATP; read-out: IC50* ERK7/MAPK15.

The target of test [6] is JAK2 (Homo sapiens, UniProt O60674). The experiment in a line: Kinase IC50, 33P labeled isotope method. The settings on record: 20 μM ATP; read-out: IC50* JAK2.
Test [7] addresses CDK4/cyclin D1 (Homo sapiens, UniProt P11802). The test is described as follows: Kinase IC50, 33P labeled isotope method. The conditions noted are these: 20 μM ATP; read-out: IC50* CDK4/cyclin D1.
In test [8] the target is FGFR3 (Homo sapiens, UniProt P22607). The test is described as follows: Kinase IC50, 33P labeled isotope method. The conditions noted are these: 20 μM ATP.
The target in test [9] is JNK2 (Homo sapiens, UniProt P45984). The experiment in a line: Kinase IC50, 33P labeled isotope method. The settings on record: 20 μM ATP; read-out: IC50* JNK2.
For test [10], the target named is CDK7/cyclin H (Homo sapiens, UniProt P50613). The test is described as follows: Kinase IC50, 33P labeled isotope method. The conditions noted are these: 20 μM ATP; read-out: IC50* CDK7/cyclin H.
Test [11] deals with CDK1/cyclin A (Homo sapiens, UniProt P06493). The test is described as follows: Kinase IC50, 33P labeled isotope method. The settings on record: 20 μM ATP; read-out: IC50* CDK1/cyclin A.
In test [12] the target is CDK1/cyclin E (Homo sapiens, UniProt P06493). The test is described as follows: Kinase IC50, 33P labeled isotope method. The settings on record: 20 μM ATP; read-out: IC50* CDK1/cyclin E.
The target of test [13] is CDK5/p35 (Homo sapiens, UniProt Q00535). The experiment in a line: Kinase IC50, 33P labeled isotope method. The conditions noted are these: 20 μM ATP; read-out: IC50* CDK5/p35.
The target in test [14] is CDK1/cyclin B (Homo sapiens, UniProt P06493). The test is described as follows: Kinase IC50, 33P labeled isotope method. The settings on record: 20 μM ATP; read-out: IC50* CDK1/cyclin B.
Test [15] deals with FGFR2 (Homo sapiens, UniProt P21802). The experiment in a line: Kinase IC50, 33P labeled isotope method. The settings on record: 20 μM ATP; read-out: IC50* FGFR2.
Test [16] addresses KDR/VEGFR2 (Homo sapiens, UniProt P35968). The test is described as follows: Kinase IC50, 33P labeled isotope method. The settings on record: 20 μM ATP; read-out: IC50* KDR/VEGFR2.
Test [17] has as its target CDK2/cyclin A (Homo sapiens, UniProt P24941). The test is described as follows: Kinase IC50, 33P labeled isotope method. The settings on record: 20 μM ATP; read-out: IC50* CDK2/cyclin A.
The target in test [18] is CDK3/cyclin E (Homo sapiens, UniProt Q00526). The experiment in a line: Kinase IC50, 33P labeled isotope method. The settings on record: 20 μM ATP; read-out: IC50* CDK3/cyclin E.
The target in test [19] is T3, CDK2/A (Homo sapiens, UniProt P24941).
T3 construct: purchased
The test is described as follows: Inhibitory activity to CDK2 (FRET). The conditions noted are these: read-out: CDK2 inhibition % (1 × 10^−6 mol/L). A digest of the protocol: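 FRET-based kinase assay using CDK2/cyclin A with peptide substrate in HEPES pH 7.5 buffer (MgCl2, BRIJ-35, EDTA). The kinase reaction ran 1 h, followed by development reagent for 1 h and a stop step. Inhibition calculated relative to phospho-peptide (100%) and ATP-free (0%) phosphorylation controls.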

The target of test [20] is T4, FLT1/VEGFR1 (Homo sapiens, UniProt P17948).
T4 sequence (P17948 827-1158 limits assumed): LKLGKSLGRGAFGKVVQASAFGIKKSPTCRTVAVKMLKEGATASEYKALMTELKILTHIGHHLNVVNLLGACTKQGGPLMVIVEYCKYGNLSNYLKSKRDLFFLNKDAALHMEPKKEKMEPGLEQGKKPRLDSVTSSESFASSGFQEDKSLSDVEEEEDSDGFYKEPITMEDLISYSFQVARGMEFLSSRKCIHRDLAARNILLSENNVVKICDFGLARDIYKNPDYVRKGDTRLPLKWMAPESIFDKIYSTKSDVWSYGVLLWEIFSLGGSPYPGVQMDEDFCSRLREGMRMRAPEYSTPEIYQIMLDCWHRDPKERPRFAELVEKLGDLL
The experiment in a line: Kinase IC50, 33P labeled isotope method. The settings on record: 20 μM ATP; read-out: IC50* FLT1/VEGFR1.

Chain of CDK4/cyclin D1 (P11802 6-295 limits assumed): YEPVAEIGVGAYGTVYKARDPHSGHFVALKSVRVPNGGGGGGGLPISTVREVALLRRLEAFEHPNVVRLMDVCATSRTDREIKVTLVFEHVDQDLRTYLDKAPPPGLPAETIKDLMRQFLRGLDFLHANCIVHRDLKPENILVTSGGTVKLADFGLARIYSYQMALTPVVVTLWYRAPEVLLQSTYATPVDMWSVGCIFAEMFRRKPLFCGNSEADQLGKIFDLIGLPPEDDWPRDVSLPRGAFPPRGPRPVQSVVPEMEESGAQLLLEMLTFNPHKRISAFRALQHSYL
Chain of CDK4/cyclin D1 (P24385 whole entry partner): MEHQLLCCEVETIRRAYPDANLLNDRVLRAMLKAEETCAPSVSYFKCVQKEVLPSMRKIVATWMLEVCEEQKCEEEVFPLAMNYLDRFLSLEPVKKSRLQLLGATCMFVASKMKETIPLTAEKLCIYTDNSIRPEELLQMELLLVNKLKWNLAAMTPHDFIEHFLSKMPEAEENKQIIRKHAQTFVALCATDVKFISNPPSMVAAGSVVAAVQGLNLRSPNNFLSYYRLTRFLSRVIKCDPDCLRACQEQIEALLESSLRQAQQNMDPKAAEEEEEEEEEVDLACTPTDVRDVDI
Chain of FGFR1 (P11362 478-767 limits assumed): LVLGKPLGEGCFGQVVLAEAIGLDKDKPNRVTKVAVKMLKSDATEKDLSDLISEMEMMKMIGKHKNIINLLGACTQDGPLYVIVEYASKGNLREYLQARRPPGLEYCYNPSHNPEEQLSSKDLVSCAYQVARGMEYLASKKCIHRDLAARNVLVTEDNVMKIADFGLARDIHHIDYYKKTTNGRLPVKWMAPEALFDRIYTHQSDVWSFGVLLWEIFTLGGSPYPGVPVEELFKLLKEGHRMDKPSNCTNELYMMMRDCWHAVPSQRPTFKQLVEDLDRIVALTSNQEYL
Chain of JAK2 (O60674 849-1124 limits assumed): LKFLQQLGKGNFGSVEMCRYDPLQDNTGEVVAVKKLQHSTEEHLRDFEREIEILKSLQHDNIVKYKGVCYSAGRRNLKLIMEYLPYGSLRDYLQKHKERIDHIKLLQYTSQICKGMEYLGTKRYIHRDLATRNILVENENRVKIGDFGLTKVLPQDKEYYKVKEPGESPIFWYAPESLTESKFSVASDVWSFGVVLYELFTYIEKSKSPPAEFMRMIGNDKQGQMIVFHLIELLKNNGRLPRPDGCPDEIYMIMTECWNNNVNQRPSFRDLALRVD
Chain of CDK5/p35 (Q00535 4-286 limits assumed): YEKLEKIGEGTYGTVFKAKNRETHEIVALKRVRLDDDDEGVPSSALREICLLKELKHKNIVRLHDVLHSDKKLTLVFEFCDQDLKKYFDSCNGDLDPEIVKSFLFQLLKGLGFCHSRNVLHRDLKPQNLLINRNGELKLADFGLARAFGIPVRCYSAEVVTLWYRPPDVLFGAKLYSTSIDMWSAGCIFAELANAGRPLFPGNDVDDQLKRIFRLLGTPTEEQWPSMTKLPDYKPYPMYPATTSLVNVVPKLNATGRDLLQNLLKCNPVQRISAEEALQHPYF
Chain of CDK5/p35 (Q15078 whole entry partner): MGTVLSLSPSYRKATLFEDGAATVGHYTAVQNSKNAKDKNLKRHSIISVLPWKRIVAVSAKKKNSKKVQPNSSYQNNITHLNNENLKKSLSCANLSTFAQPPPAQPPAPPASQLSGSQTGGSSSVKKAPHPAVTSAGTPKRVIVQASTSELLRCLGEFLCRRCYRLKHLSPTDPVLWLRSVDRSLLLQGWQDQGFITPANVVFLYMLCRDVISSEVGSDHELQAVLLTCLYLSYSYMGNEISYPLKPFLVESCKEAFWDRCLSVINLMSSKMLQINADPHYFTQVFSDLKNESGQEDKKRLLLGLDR
Chain of FGFR3 (P22607 472-761 limits assumed): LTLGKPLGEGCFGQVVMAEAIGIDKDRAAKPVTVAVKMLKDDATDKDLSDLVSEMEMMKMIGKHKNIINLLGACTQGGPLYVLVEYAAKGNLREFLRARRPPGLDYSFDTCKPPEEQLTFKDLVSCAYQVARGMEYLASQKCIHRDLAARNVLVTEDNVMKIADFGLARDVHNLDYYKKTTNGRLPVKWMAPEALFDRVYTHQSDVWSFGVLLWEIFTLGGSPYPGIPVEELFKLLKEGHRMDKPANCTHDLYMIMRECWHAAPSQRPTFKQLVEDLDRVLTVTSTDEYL
Chain of FGFR2 (P21802 481-770 limits assumed): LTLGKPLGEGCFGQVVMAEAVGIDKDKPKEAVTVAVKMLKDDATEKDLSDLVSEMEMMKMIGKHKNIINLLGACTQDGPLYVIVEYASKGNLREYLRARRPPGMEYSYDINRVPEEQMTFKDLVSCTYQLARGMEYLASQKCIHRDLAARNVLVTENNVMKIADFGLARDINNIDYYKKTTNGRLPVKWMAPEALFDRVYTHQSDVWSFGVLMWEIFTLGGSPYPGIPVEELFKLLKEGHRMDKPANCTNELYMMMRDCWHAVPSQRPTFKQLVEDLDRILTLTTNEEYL
Chain of CDK1/cyclin E (P06493 4-287 limits assumed): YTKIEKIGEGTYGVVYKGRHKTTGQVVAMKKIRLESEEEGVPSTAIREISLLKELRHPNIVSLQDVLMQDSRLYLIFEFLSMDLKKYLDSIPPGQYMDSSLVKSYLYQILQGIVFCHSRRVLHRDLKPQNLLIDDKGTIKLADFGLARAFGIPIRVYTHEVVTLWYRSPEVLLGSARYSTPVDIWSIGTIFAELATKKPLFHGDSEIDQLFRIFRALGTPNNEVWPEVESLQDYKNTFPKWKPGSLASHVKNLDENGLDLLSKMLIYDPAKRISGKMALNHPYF
Chain of CDK1/cyclin E (P24864 whole entry partner): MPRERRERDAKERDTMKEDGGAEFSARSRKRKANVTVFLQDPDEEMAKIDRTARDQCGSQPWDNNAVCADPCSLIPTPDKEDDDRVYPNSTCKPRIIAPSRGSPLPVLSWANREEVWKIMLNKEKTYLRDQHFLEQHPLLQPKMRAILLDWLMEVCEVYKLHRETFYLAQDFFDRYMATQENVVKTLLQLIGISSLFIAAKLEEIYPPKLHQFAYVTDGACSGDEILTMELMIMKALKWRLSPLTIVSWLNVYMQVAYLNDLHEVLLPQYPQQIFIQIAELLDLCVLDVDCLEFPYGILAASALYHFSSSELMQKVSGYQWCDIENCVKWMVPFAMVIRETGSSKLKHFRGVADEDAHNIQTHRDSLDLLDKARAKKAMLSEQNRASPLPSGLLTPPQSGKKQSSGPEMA
Chain of CDK1/cyclin B (P06493 4-287 limits assumed): as the sequence (P06493 4-287 limits assumed) above
Chain of CDK1/cyclin B (P14635 whole entry partner): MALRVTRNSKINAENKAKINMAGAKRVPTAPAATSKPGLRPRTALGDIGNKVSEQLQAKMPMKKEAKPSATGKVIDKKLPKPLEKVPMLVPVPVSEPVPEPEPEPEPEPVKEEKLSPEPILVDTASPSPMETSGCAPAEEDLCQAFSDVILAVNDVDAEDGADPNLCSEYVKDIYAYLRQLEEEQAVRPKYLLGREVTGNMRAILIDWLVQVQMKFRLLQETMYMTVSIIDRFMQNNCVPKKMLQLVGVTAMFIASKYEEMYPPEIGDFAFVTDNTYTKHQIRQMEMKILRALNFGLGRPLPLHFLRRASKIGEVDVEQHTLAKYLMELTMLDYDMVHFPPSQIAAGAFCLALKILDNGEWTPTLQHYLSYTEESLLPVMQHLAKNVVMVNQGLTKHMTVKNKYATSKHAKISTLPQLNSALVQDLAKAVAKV
Chain of JNK1 (P45983 26-321 limits assumed): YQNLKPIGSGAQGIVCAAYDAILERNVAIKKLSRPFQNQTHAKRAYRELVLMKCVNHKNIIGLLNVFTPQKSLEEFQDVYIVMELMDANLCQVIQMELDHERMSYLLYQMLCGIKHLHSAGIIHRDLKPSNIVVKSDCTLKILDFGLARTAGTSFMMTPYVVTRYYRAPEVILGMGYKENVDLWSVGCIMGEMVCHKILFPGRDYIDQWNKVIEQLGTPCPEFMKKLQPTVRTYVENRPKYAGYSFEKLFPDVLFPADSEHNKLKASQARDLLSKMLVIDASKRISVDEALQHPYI
Chain of KDR/VEGFR2 (P35968 834-1162 limits assumed): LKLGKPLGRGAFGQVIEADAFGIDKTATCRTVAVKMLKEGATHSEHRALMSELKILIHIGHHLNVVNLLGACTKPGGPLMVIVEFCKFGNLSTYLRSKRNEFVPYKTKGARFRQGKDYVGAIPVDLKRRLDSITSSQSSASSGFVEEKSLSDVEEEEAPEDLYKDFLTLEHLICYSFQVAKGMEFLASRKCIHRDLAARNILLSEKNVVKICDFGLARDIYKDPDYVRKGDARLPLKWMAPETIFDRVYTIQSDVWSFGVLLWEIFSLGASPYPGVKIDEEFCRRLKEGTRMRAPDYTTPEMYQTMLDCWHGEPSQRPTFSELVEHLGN
Chain of JNK2 (P45984 26-321 limits assumed): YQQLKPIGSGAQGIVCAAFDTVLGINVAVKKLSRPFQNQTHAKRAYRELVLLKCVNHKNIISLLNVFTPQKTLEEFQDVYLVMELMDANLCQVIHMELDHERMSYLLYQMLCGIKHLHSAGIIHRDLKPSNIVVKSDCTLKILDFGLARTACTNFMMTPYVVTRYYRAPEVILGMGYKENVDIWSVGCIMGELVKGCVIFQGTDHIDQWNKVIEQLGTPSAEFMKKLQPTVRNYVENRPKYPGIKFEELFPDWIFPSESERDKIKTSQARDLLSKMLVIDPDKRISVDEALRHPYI

Consider `Cc1cc2c(Nc3c[nH]nc3C(=O)Nc3ccc(CN4CCN(C)CC4)cc3)nccc2s1` [Compound I-27, 4-(4-(2-methylthieno[3,2-c]pyridyl)amino)-N-(4-((4-methyl-1-piperazinyl)methyl)phenyl)-1H-3-pyrazolecarboxamide], for which the IC50 in test [1] is 316 nM; in [2], 1330 nM; in [3], 10 nM; in test [5], 8 nM; in test [6], 826 nM; in [7], 7 nM. The IC50 in [8] amounted to 841 nM; in test [9], 1380 nM; in test [10] it was 575 nM; in test [11], 164 nM; in test [12], 100 nM; in [13] it was 15 nM. The IC50 amounted to 91 nM in test [14]; 242 nM in test [15]; 38 nM in test [16]; 16 nM in test [17]; 198 nM in test [18]; 22 nM in [20]. In addition, the inhibition at 1 µM in test [4] is 67.8%; in test [19], 72.6%.
